Test results: the NIST ThermoML archive (doi:10.1021/je600580r)
± gives the expanded uncertainty stated by the source.

Tests used:
[1] = Crystal; DTA
[2] = Molar enthalpy of transition or fusion; settings: Crystal; DSC
[3] = molar enthalpy of vaporization or sublimation; settings: Liquid, DSC

Compound | Normal melting temperature [1] [°C] | Molar enthalpy of transition or fusion [2] [kcal/mol] | molar enthalpy ([3]; 466 K) [kcal/mol] | molar enthalpy ([3]; 467 K) [kcal/mol] | molar enthalpy ([3]; 461 K) [kcal/mol]
CCNc1nc(NC(C)C)nc(SC)n1 [2-methylthio-4-ethylamino-6-isopropylamino-1,3,5-triazine] | 83.6 ± 0.5 | 6.21 ± 0.956 | 21.7 ± 1.91 | – | –
CCNc1nc(NC(C)(C)C)nc(SC)n1 | 99.2 ± 0.5 | 5.02 ± 0.956 | – | 20.8 ± 2.39 | –
CCNc1nc(NCC)nc(SC)n1 [2-methylthio-4,6-bis(ethylamino)-1,3,5-triazine] | 77.4 ± 0.5 | 5.74 ± 0.478 | – | – | 21 ± 1.91
